According to patent publication US20080288176A1 (priority 2005, published 2008):
Like-named read-outs stand apart in the source and are kept apart here. Blank lines part the entries; values can stand above or below the molecule they belong to.

Key:
[1] = Hydrolysis in rat intestinal microsomes; type: in vitro ADME
Description: (§1) The physiologically based pharmacokinetic/pharmacodynamic model of the present invention contains a series of compartments that describe the time course of a nonsteroidal anti-inflammatory prodrug, its active metabolites and nitric oxide release in intestine, liver, kidneys, blood/plasma and heart after prodrug administration. The time course of the prodrug, its active metabolites and nitric oxide release can be simulated using a series of in vitro and in silico inputs. The stability of each component in the gastrointestinal lumen is estimated using data collected from artificial gastric and intestinal juice. Intestinal metabolism is estimated using intestinal microsomes and absorption rate is estimated using permeability data collected from a cell monolayer such as Caco-2. Hepatic elimination is estimated using liver microsomes and stability in plasma is calculated using degradation of each component in the media. Plasma protein binding can either be measured using a standardized in vitro method or it can be estimated using an in silico method. The distribution of each component in various parts of the body is estimated using an in silico method. The rate of nitric oxide release is estimated using an in vitro endothelial cell model. The time course of prodrug, its active metabolites and nitric oxide can be simulated in human and animal using this physiologically based pharmacokinetic/pharmacodynamic model provided that the corresponding in vitro and in silico data are used as inputs.
(§2) Representative in vitro tests or in silico estimates include: (a) pKa estimation or measurement; (b) Log P measurement or in silico estimation; (c) Solubility in various physiological fluids; (d) Permeability. Caco-2 and/or NOVOKIN's proprietary animal and human cell lines can be used to obtain this parameter; (e) Metabolic rate in the intestine and liver. Human or animal intestinal microsomes, S9 fraction, and cytosol can be used for this purpose. Human or animal hepatocytes, liver microsomes, S9 fraction, and cytosol can also be used; (f) Hydrolysis in human or animal plasma; (g) Serum or plasma protein binding. It can be measured in vitro or estimated in silico; (h) The rate of NO release; (i) Existing pharmacokinetic and pharmacodynamic data of NSAID or a biocompatible agent; (j) Existing NO release rate of known diazeniumdiolate if applicable; (k) Stability in gastric and intestinal environment; and (l) In silico volume of distribution estimation.
(§3) Whenever in vitro estimate is attainable, the in vitro results will be used, for example, plasma protein binding. Methods reported by Bowalgaha & Miners (2001), Martignoni et al. (2006), Tong et al. (2001) and Thulesen et al. (1999) were used for in vitro and in vivo scale-up for clearance in the intestine, absorption rate constant and hepatic clearance. The simulation begins with no material in all compartments except for the initial bolus in one compartment (typically the stomach compartment). The simulation then estimates the changing distribution of the material with time.

[2] = Stability in intestinal lumen (decay rate); type: in vitro ADME
Description: as §1, §2

Hydrolysis in rat plasma = type: in vitro ADME; conditions: NO-AA formed from the prodrug
Description: as §1, §2

[3] = Hydrolysis in human intestinal microsomes; type: in vitro ADME
Description: as §1
The selection of in vitro tests is designed to provide parameters for the above mentioned model. The use of an inappropriate test would result in wrong predictions. For example, Knaus et al. (2005) used guinea pig serum and porcine esterases to hydrolyze their O^2-substituted diazeniumdiolate derivatives of ASPIRIN, as disclosed in U.S. Ser. No. 60/681,842. These tests provided very little information in terms of in vivo human NO-NSAID metabolism rate and the extent to which metabolic conversion to NO donor and NSAID occurred. […] The half-life values were less than one minute. Based on these observations, it has become apparent that prior to entering the systemic circulation, it is likely that the NO-NSAID would have been hydrolyzed in the enterocytes and little or no NO-NSAID would have been detected in the blood stream. Furthermore, the release of NO will commence immediately once the NO donor is detached from the NSAID.
as §2, §3

[4] = Hydrolysis in various enzymatic preparations (rat and human intestinal and liver microsomes)
[5] = Hydrolysis in rat liver microsomes; type: in vitro ADME
Description: as §1, §2, §3

[6] = Stability in gastric environment (gastric decay rate); type: in vitro ADME
Description: as §1, §2

[7] = Hydrolysis in human liver microsomes; type: in vitro ADME
Description: as §1, with “The” for “The physiologically based pharmacokinetic/pharmacodynamic model of the present invention contains a series of compartments that describe the time course of a nonsteroidal anti-inflammatory prodrug, its active metabolites and nitric oxide release in intestine, liver, kidneys, blood/plasma and heart after prodrug administration. The”
The selection of in vitro tests is designed to provide parameters for the above mentioned model. The use of an inappropriate test would result in wrong predictions.
as §2
The simulation begins with no material in all compartments except for the initial bolus in one compartment (typically the stomach compartment). The simulation then estimates the changing distribution of the material with time.

[8] = Chemical stability (loss of diazeniumdiolate) in phosphate buffer; type: physicochemical
Description: They varied only in the nitrogen substituent of the amino acid, i.e. free amine (1), acetyl (2) and pivaloyl (3) groups. Their chemical stability was evaluated in phosphate buffer at different pH's over a 30 minute period (Table 11).

[9] = Enzymatic hydrolysis in intestinal microsomal preparations (LC-MS); type: in vitro ADME; conditions: after 2 hours
Description: (§4) The sensitivity of the prodrug 3 towards enzymatic hydrolysis was evaluated by LC-MS. Liver and intestinal microsomal preparations were used. […] However, these rates were slower than the enzymatic hydrolysis rates determined for the conversion of 1→4 and 2→5 (complete hydrolysis observed in 10 and 30 minutes respectively in liver microsomal preparations).

[10] = Enzymatic hydrolysis in liver microsomal preparations (LC-MS); type: in vitro ADME; conditions: liver microsomal preparations
Description: as §4

male Wistar rats [11] = assay: Urine alanine aminopeptidase to creatinine ratio (proximal tubular kidney damage); type: in vivo, rat; conditions: oral gavage, urine collected for 6 hours
Description: (§5) Myocardial infarction and ischemic events in high risk patients led one of the most popular COX-2 inhibitors to its demise (Bresalier et al., 2005). Non-selective NSAIDS may also cause similar problems due to their ability to inhibit COX-2. […] Adenosine diphosphate (ADP) generation is an indicator of myocardial infarction which has no connection with the arachidonic acid cascade (Borna et al., 2005). […] Long term NSAID use has been linked to kidney damage and hypertension (Zafirovska et al., 1993). […] This was associated with an increase in the urine the ratio of alanine-amino-peptidase (AAP) and creatinine.
(§6) Table 1 is a summary of the protocol for a study which was conducted in male Wistar rats weighing 275-300 grams. The animals were allowed to acclimatize for at least five days prior to the commencement of the study. The study protocol was approved by the local animal ethics committee.
(§7) All test animals, housed in metabolic cages, had urine collected over wet ice for 6 hours after dosing. Aliquots of the urine from each animal were collected to determine creatinine concentration. The remainder of the urine was centrifuged at 1000 g for 10 minutes. The supernatant was collected and mixed with analytical grade ethylene glycol at a rate of 0.4 mL ethylene glycol per 1 mL urine supernatant. The ethylene glycol/urine mixture was stored at −80° C. until analysis.

[12] = Serum nitrate concentration (NO release) after oral dosing; type: in vivo, rat; conditions: male Wistar rats, oral gavage, at 6 hours
Description: as §6
(§8) The animals were fasted overnight prior to test substance administration. The test substance was administered orally by gavage on the morning of the study day. All test animals had blood collected during the test period in both EDTA (ethylenediaminetetraacetic acid) tubes and SST (Serum Separator Tubes) at 1, 3 and 6 hours after dosing. Blood was collected into EDTA tubes only at 1 and 3 hours by tail tip amputation. Volume of blood collected was between 0.5 and 1 mL at each of these collections. The final collection was by puncture of the abdominal vena cava under isoflurane general anesthesia. Final blood collection was targeted as follows: 1st EDTA #1—1.5 mL; 2nd SST—1.5 mL; 3rd EDTA #2—as much as possible.
EDTA samples were centrifuged, and the plasma portion was collected and frozen at −80° C. SST samples were incubated at 37° C. for approximately 45 minutes, centrifuged, and the serum was collected and frozen at −80° C. until analysis.

male Wistar rats [13] = assay: Gastric ulcer index after oral dosing; type: in vivo, rat
Description: as §6, §8
Each animal from all groups underwent a full necropsy under the supervision of a board certified veterinary pathologist. The stomach of each rat was cut along the greater curvature, contents removed into a polypropylene (Falcon) tube, the mucosa rinsed with saline and any obvious ulcers or erosions were measured along the longest axis. This measurement was recorded for each ulcer or erosion observed in each stomach. The falcon tubes and their contents were frozen at −80° C. and shipped to Novokin on dry ice for analysis.
The aggregate length of all gastric ulcers found in a given animal was calculated. The mean aggregate ulcer length across animals in a group was calculated. This mean value was reported as the ulcer index for that group.
The ulcer index of each modified drug was compared with the ulcer index of its associated parent drug and the controls using analysis of variance and Duncan's multiple range test for pairwise comparisons. Statistical analysis was done using SAS® (SAS Institute Inc., Cary, N.C.).

male Wistar rats [14] = assay: Urine N-acetylglucosaminidase to creatinine ratio (distal tubule toxicity); type: in vivo, rat; conditions: oral gavage, urine collected for 6 hours
Description: as §6, §7

[15] = Rat; estimated from Table II - Runkle, 1972; cited from earlier work
[16] = Human; estimated from Table II - Runkle, 1972; cited from earlier work
[17] = system: cardiac tissue prostacyclin (PGI2) to thromboxane A2 (TXB2) ratio; assay: Cardiac tissue prostacyclin to thromboxane ratio; type: in vivo, rat; conditions: male Wistar rats
Description: as §5, §6
All rats were euthanized by removal of the heart 6 hours after initial dosing, following final blood collections. Immediately after terminal blood collections were complete, the thorax was opened and the heart removed. The heart was cut in half longitudinally. Half of the heart was placed in formalin for histological examination. The other half was quickly rinsed in saline and then freeze-clamped (crushed between the jaws of a pair of modified tongs, cooled by liquid nitrogen). An entire kidney was freeze-clamped. The other kidney was left in situ for examination by the pathologist. Freeze-clamped tissues were wrapped in labeled aluminum foil and stored in liquid nitrogen until they could be transferred to a −80° C. freezer. Freeze-clamped tissues were shipped on dry ice to NOVOKIN for analysis.

SMILES: COc1ccc2cc(C(C)C(=O)OCOC(=O)C(CCC(=O)OCON=[N+]([O-])N(C)C)NC(=O)C(C)(C)C)ccc2c1 (stereo not shown) [CMD 114]
- intestinal molar percent conversion to Naproxen [1]: 42%
- intestinal microsomal activity ([1]; model input): 9 mL/min/organ
- intestinal lumen decay rate constant ([2]; Human): 0.67 min⁻¹
- intestinal lumen decay rate constant ([2]; Rat): 0.67 min⁻¹
- Hydrolysis of the NO-AA in rat plasma (in words) (Hydrolysis in rat plasma): relatively fast rate
- NO-AA half-life in plasma (Hydrolysis in rat plasma; Rat): 3.8 min
- intestinal molar percent conversion to Naproxen [3]: 78%
- intestinal microsomal activity ([3]; model input): 5006 mL/min/organ
- Stability of the NO-AA formed (in words) ([4]; intestinal and liver microsomes of human and rats): relatively stable
- Initial loss of the prodrug candidate (in words) ([4]; various enzymatic preparations): rapid initial loss
- liver molar percent conversion to Naproxen [5]: 60%
- liver microsomal activity ([5]; model input): 7667 mL/min/organ
- gastric decay rate constant ([6]; Human): 0 /mint
- gastric decay rate constant ([6]; Rat): 0 /mint
- liver molar percent conversion to Naproxen [7]: 50%
- liver microsomal activity ([7]; model input): 721224 mL/min/organ

- Stability (loss of diazeniumdiolate), pH 2.5 ([8]; 30 min, pH 2.5): ✓
- Stability (loss of diazeniumdiolate), pH 5.0 ([8]; 30 min, pH 5.0): ✓
- Stability (loss of diazeniumdiolate), pH 7.0 ([8]; 30 min, pH 7.0): ✓
- Chemical stability (in words) ([8]; pH range 2.5-7.0, 30 minute period): stable
- Conversion to NSAID-amino acid (cleavage of the diazeniumdiolate) [9]: 50%
- Time to complete hydrolysis (cleavage of the diazeniumdiolate) [10]: 2 h
SMILES: COc1ccc2cc(C(C)C(=O)OC3CC(C(=O)OCO/N=[N+](\[O-])N(C)C)N(C(=O)C(C)(C)C)C3)ccc2c1 (stereo not shown) [Compound 3]

SMILES: COc1ccc2cc([C@H](C)C(=O)O)ccc2c1 [NAP, naproxen]
- AAP/Cr (urine alanine aminopeptidase to creatinine), Mean (male Wistar rats [11]): 263.788
- Serum Nitrate Concentrations, Mean [12]: 55.167
- Ulcer Indices, Mean (male Wistar rats [13]; oral gavage, naproxen 250 mg/kg or molar equivalent (ROF 250 mg/kg), 6 h after dosing, mean aggregate gastric ulcer length): 4.282
- Ulcerogenicity (in words) (male Wistar rats [13]; oral, 6 h): severely ulcerogenic
- Urine NAG/Cr values, Mean (male Wistar rats [14]): 30.865
- liver microsomal activity [15]: 0.0075 mL/min/organ
- liver microsomal activity [16]: 0.0092 mL/min/organ
- PGI2 and TXA2 levels (in words) ([17]; cardiac tissue): lowered both PGI2 and TXA2 levels
- Cardiac Tissue PGI2/TXB2, Mean ([17]; oral gavage, heart removed 6 hours after dosing): 4.544
